From patent US20260365670A1, “EGFR INHIBITORS AND USES THEREOF” (DIZAL (JIANGSU) PHARMACEUTICAL CO., LTD., priority 2022, published 2026)
Where two headings read alike, the source gives them in different places.

Key:
EGFR (C797S L858R) = biological target: T1, EGFR (C797S L858R) (Homo sapiens, UniProt P00533, C797S/L858R); test: Inhibition of EGFR (C797S L858R) biochemical enzymatic activity (HTRF); settings: EGFR L858-C797S, 1 mM ATP, 1 h, room temperature, read-out: IC50 (nM) @L858-C797S
T1 construct: purchased signalchem
In short: (§1)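 Using a high ATP level (1 mM), wild-type and mutant EGFR enzymes were incubated 1 h at room temperature with inhibitor and 1 μM biotinylated TK substrate. Phosphorylation was quantified as the 665/615 nm HTRF ratio. IC50s were derived by logistic fitting.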

EGFR L858R/T790M = biological target: T2, EGFR L858R/T790M (Homo sapiens, UniProt P00533, L858R/T790M); test: Inhibition of EGFR L858R/T790M biochemical enzymatic activity (HTRF); settings: EGFR L858R-T790M, 1 mM ATP, 1 h, room temperature, read-out: IC50 (nM) @L858R-T790M
T2 construct: purchased Carna Bio
In short: as §1

EGFR L858R = biological target: T3, EGFR L858R (Homo sapiens, UniProt P00533, L858R); test: Inhibition of EGFR L858R biochemical enzymatic activity (HTRF); settings: 1 mM ATP, 1 h, room temperature, read-out: IC50 (nM) @L858R
T3 construct: purchased Carna Bio
In short: as §1

[1] = test system: Ba/F3 cells expressing EGFR mutations; test: Cell proliferation assay, Ba/F3 cells expressing EGFR mutations (CellTiter-Glo, 72 hours); assay type: cell-based; settings: CellTiter-Glo
In short: (§2)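 Seed Ba/F3 at 5000 cells/well and PC-9 at 500 cells/well (10% FBS RPMI1640); incubate overnight; add compound dilution series; read a G0 plate; incubate; read G3; GI50 from best-fit curve.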

EGFR Exon19Del = biological target: T4, EGFR Exon19Del (Homo sapiens, UniProt P00533, DEL746-750); test: Inhibition of EGFR Exon19Del biochemical enzymatic activity (HTRF); settings: EGFR Del19, 1 mM ATP, 1 h, room temperature, read-out: IC50 @Del19
T4 construct: purchased Carna Bio
In short: as §1

PC-9 = test: Cell proliferation assay, PC-9 cells (CellTiter-Glo, 72 hours); assay type: cell-based; settings: PC9 cells, CellTiter-Glo, read-out: PC9 GI50
In short: as §2

EGFR wild type = biological target: T5, EGFR wild type (Homo sapiens, UniProt P00533); test: Inhibition of EGFR wild type biochemical enzymatic activity (HTRF); settings: EGFR WT, 1 mM ATP, 1 h, room temperature, read-out: IC50 (nM) @WT
T5 construct: purchased Carna Bio
In short: as §1

EGFR (d746-750 C797S) = biological target: T6, EGFR (d746-750 C797S) (Homo sapiens, UniProt P00533, C797S/DEL746-750); test: Inhibition of EGFR (d746-750 C797S) biochemical enzymatic activity (HTRF); settings: EGFR Del19-C797S, 1 mM ATP, 1 h, room temperature, read-out: IC50 (nM) @Del19-C797S
T6 construct: purchased signalchem
In short: as §1

A-431 = test: Cell proliferation GI50, A-431 cells (Table 6); assay type: cell-based
[2] = biological target: T7, EGFR[T790M/C797S/d746-750] (Homo sapiens, UniProt P00533, C797S/DEL746-750/T790M); test: Inhibition of EGFR[T790M/C797S/d746-750] biochemical enzymatic activity (HTRF); settings: EGFR T790M-C797S-Del19, 1 mM ATP, 1 h, room temperature, read-out: IC50 (nM) @T790M - C797S - Del19
T7 construct: purchased Carna Bio
In short: as §1

EGFR[T790M/C797S/L858R] = biological target: T8, EGFR[T790M/C797S/L858R] (Homo sapiens, UniProt P00533, C797S/L858R/T790M); test: Inhibition of EGFR[T790M/C797S/L858R] biochemical enzymatic activity (HTRF); settings: EGFR T790M-C797S-L858R, 1 mM ATP, 1 h, room temperature, read-out: IC50 (nM) @T790M- C797S - L858R
T8 construct: purchased Carna Bio
In short: as §1

EGFR Exon19Del/T790M = biological target: T9, EGFR Exon19Del/T790M (Homo sapiens, UniProt P00533, DEL746-750/T790M); test: Inhibition of EGFR Exon19Del/T790M biochemical enzymatic activity (HTRF); settings: EGFR Del19-T790M, 1 mM ATP, 1 h, room temperature, read-out: IC50 (nM) @Del19-T790M
T9 construct: purchased Carna Bio
In short: as §1

[3] = BaF3 cells, EGFR DEL19-C797S, read-out: DEL19-C797S/BaF3 GI50
[4] = BaF3 cells, EGFR DEL19-T790-C797S, read-out: DEL19-T790-C797S/BaF3 GI50
[5] = BaF3 cells, EGFR L858R, read-out: L858R/BaF3 GI50
[6] = BaF3 cells, EGFR L858R-C797S, read-out: L858R-C797S/BaF3 GI50
[7] = BaF3 cells, EGFR L858R-T790-C797S, read-out: L858R-T790-C797S/BaF3 GI50
[8] = BaF3 cells, EGFR L858R-T790M, read-out: L858R-T790M/BaF3 GI50
[9] = EGFR DEL19-T790M, read-out: DEL19-T790M GI50
[10] = Homo sapiens, A-431, A-431 cells

T4 sequence (P00533 with tags, fused parts or gaps DEL746-750 limits assumed): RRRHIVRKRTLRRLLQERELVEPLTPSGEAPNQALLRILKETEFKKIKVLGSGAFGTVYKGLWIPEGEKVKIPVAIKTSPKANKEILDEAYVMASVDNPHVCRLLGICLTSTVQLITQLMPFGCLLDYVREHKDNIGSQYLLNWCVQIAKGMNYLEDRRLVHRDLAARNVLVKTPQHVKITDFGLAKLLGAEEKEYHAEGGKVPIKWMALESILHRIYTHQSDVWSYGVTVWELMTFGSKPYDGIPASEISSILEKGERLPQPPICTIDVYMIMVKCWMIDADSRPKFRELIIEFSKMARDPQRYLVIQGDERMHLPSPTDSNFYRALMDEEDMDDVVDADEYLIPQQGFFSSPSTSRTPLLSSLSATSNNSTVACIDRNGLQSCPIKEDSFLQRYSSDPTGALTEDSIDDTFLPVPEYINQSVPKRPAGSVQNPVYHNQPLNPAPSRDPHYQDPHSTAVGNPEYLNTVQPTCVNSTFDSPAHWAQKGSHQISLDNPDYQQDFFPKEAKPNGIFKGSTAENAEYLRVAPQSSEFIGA
T1 sequence (P00533 25-1210 C797S/L858R): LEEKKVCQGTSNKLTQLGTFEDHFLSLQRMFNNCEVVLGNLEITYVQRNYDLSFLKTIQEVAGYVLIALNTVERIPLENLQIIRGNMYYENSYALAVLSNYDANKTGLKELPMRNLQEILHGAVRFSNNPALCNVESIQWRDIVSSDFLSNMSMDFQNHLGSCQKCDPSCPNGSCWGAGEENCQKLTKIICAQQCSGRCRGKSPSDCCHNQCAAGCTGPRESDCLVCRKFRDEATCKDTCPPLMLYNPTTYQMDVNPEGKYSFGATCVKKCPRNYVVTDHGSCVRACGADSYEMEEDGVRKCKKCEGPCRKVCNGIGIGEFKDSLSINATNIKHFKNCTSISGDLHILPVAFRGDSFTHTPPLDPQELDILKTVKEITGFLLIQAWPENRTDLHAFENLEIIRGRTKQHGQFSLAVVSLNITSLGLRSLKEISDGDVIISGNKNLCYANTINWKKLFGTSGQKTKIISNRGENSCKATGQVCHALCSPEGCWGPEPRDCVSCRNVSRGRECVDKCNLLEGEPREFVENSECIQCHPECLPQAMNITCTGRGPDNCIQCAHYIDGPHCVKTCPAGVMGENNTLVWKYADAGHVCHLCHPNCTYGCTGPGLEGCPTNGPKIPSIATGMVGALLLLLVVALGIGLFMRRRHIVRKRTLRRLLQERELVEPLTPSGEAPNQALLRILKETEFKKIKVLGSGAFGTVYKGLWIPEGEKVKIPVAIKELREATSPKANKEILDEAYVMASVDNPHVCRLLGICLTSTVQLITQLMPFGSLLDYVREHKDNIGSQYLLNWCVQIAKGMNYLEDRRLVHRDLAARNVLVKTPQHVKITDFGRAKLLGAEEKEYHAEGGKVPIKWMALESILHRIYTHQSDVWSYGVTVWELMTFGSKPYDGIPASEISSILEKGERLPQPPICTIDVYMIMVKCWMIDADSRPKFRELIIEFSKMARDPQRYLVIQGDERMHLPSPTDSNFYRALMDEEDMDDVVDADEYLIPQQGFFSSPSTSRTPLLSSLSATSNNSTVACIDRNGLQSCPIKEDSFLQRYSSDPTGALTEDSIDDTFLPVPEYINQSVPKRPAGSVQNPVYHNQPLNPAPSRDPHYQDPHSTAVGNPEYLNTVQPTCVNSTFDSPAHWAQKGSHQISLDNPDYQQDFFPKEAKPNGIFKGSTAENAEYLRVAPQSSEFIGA
T9 sequence (P00533 with tags, fused parts or gaps DEL746-750/T790M limits assumed): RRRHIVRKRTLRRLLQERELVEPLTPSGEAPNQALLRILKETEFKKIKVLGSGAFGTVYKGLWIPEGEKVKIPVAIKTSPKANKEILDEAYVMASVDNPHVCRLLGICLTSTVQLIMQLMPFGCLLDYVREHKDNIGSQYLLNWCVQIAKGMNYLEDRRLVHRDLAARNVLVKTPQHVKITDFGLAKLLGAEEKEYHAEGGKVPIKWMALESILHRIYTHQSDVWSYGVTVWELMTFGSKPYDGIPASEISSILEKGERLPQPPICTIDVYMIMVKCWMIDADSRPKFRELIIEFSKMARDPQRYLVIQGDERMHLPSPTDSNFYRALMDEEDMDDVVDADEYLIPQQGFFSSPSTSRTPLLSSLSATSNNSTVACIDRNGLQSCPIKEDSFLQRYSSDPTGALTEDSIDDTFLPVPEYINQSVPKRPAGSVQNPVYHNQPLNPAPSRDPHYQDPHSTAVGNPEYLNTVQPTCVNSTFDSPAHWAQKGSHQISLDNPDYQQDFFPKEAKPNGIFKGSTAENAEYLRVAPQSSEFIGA
T7 sequence (P00533 with tags, fused parts or gaps DEL746-750/T790M/C797S limits assumed): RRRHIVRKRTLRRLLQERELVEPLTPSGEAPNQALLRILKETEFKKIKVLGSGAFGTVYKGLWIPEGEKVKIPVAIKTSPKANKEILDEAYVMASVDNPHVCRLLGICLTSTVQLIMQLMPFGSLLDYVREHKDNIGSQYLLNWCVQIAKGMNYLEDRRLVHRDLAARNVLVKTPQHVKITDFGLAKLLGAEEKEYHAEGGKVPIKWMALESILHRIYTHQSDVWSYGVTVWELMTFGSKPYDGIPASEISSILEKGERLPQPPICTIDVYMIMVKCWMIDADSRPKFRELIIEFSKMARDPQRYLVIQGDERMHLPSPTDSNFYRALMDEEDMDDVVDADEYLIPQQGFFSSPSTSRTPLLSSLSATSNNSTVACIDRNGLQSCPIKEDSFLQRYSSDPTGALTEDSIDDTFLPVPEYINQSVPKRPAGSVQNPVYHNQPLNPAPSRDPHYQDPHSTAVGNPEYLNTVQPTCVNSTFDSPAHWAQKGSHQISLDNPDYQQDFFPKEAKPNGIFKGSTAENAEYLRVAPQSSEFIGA
T8 sequence (P00533 25-1210 T790M/C797S/L858R): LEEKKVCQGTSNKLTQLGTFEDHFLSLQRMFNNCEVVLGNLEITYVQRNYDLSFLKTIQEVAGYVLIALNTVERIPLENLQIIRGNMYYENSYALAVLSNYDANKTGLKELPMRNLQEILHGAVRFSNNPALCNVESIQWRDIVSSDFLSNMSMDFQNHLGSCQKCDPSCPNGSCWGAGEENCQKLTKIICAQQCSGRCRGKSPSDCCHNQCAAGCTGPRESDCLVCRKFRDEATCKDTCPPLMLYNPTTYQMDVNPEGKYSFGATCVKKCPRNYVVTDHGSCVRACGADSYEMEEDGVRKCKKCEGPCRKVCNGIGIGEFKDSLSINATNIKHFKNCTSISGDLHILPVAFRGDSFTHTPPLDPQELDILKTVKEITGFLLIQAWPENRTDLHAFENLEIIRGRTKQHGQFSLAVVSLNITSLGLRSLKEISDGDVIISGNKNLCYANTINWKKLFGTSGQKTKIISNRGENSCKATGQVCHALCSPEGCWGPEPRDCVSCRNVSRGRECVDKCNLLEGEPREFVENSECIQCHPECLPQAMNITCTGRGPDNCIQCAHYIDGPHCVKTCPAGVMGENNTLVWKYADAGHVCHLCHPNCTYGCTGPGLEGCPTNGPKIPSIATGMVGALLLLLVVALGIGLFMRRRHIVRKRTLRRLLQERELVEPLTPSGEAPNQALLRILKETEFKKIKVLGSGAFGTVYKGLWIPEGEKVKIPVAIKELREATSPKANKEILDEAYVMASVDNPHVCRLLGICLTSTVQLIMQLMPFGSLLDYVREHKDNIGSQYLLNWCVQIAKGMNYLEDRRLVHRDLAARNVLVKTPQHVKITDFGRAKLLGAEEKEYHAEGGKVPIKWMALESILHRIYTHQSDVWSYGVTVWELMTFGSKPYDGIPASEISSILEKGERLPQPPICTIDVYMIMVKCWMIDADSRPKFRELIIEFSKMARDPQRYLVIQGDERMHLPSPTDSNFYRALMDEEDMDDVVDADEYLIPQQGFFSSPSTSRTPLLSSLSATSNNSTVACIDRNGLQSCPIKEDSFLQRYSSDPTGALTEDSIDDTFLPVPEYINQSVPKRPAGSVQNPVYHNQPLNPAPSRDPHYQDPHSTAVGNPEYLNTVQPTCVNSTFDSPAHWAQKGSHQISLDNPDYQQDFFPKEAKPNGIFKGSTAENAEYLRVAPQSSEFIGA
T6 sequence (P00533 with tags, fused parts or gaps DEL746-750/C797S limits assumed): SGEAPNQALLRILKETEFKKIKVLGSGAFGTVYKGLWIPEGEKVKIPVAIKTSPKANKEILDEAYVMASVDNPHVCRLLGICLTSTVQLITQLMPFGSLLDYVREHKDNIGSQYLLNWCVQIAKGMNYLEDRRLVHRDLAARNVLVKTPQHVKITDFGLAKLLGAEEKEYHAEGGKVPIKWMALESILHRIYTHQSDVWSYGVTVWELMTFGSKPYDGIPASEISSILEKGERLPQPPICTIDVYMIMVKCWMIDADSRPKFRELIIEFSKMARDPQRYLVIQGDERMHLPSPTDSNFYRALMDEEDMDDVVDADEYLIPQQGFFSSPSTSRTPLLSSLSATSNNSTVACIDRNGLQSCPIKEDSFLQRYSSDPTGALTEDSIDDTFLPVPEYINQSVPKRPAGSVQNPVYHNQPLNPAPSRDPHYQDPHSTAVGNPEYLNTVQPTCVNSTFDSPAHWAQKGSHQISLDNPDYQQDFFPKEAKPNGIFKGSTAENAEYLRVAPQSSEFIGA

| SMILES | IC50 (EGFR (C797S L858R)) [nM] | IC50 (EGFR L858R/T790M) [nM] | IC50 (EGFR L858R) [nM] | GI50 [1, 3] [nM] | GI50 [1, 4] [nM] | GI50 [1, 5] [nM] | GI50 [1, 6] [nM] | GI50 [1, 7] [nM] | GI50 [1, 8] [nM] | GI50 [1, 9] [nM] | IC50 (EGFR Exon19Del) [nM] | GI50 (PC-9) [nM] | IC50 (EGFR wild type) [nM] | IC50 (EGFR (d746-750 C797S)) [nM] | GI50 (A-431; [10]) [nM] | IC50 [2] [nM] | IC50 (EGFR[T790M/C797S/L858R]) [nM] | IC50 (EGFR Exon19Del/T790M) [nM] | GI50 (A-431; A-431 cells) [nM] |
| --- | --- | --- | --- | --- | --- | --- | --- | --- | --- | --- | --- | --- | --- | --- | --- | --- | --- | --- | --- |
| CN(C)[C@@H]1CCN(c2ccc3nc4n(c3c2)C23CCC(CN(CCOc5c(cnn5C)-c5cc(cn(C)c5=O)C(=O)N4)C2)C3)C1 (single isomer, unassigned) [Example A66D] | 3.7 | 1.7 | 3.7 | 0.68 | 1.5 | 1.7 | 3.2 | 1.4 | 7.2 | 2 | 2.7 | 4.2 | 18 | 1.1 | 473 | 1.6 | 2.1 | 2 |  |
| CN1CCC12CCN(c1ccc3nc4n(c3c1)C13CCC(CN(CCOc5c(cnn5C)-c5cc(cn(C)c5=O)C(=O)N4)C1)C3)CC2 (single isomer, unassigned) [Example A67A] | > 5000 | > 5000 | > 5000 | 133 | 374 | 530 | 382 | 258 | 1040 | 463 | 1020 | 307 | > 5000 | 1080 |  | 1640 | > 5000 | 4070 | 6350 |
| CN1CCC12CCN(c1ccc3nc4n(c3c1)C13CCC(CN(CCOc5c(cnn5C)-c5cc(cn(C)c5=O)C(=O)N4)C1)C3)CC2 (single isomer, unassigned) [Example A67B] | 1.2 | 1.1 | 1.1 | 0.64 | 0.92 | 0.79 | 1.9 | 0.84 | 3.5 | 1 | 0.65 | 2.5 | 2.1 | 0.48 |  | 1.2 | 1.1 | 1.3 | 712 |
| CN1CC2CN(c3ccc4nc5n(c4c3)C34CCC(CN(CCOc6c(cnn6C)-c6cc(cn(C)c6=O)C(=O)N5)C3)C4)CC2C1 (single isomer, unassigned) [Example A68B] | 3.1 | 1.8 | 2.9 | 0.66 | 1.3 | 2.1 | 2.8 | 1.3 | 9.6 | 1.8 | 1.2 | 3.5 | 8.9 | 0.95 |  | 1.8 | 1.8 | 1.8 | 284 |
| Cn1ncc2c1OCCN1CC3CCC(C3)(C1)n1c(nc3ccc(N4CC(N5CCOCC5)C4)cc31)NC(=O)c1cc-2c(=O)n(C)c1 (single isomer, unassigned) [Example A69A] | > 5000 | > 5000 | > 5000 | 227 | 366 | 643 | 598 | 503 | 1530 | 465 | 1200 | 723 | > 5000 | 1780 |  | > 5000 | > 5000 | > 5000 | 9380 |
| Cn1ncc2c1OCCN1CC3CCC(C3)(C1)n1c(nc3ccc(N4CC(N5CCOCC5)C4)cc31)NC(=O)c1cc-2c(=O)n(C)c1 (single isomer, unassigned) [Example A69B] | 14 | 2.8 | 22 | 0.62 | 1.3 | 2.9 | 3.6 | 2 | 10 | 2 | 2.9 | 4.9 | 291 | 1.2 |  | 2.2 | 3 | 2 | 776 |
| CN1CCN(C2CN(c3ccc4nc5n(c4c3)C34CCC(CN(CCOc6c(cnn6C)-c6cc(cn(C)c6=O)C(=O)N5)C3)C4)C2)CC1 (single isomer, unassigned) [Example A70B] | 3.6 | 1.8 | 4.7 | 0.66 | 1 | 0.76 | 2.7 | 0.91 | 5.9 | 1.6 | 1.6 | 2.7 | 19 | 0.91 |  | 2.1 | 2.1 | 1.9 | 744 |
| Cn1ncc2c1OCCN1CC3CCC(C3)(C1)n1c(nc3ccc(N4CCN(C5COC5)CC4)cc31)NC(=O)c1cc-2c(=O)n(C)c1 (single isomer, unassigned) [Example A71B] | 20 | 2.8 | 14 | 0.66 | 2 | 2.9 | 4.2 | 2.2 | 8 | 1.9 | 1.8 | 6.6 | 319 | 1.3 |  | 2.4 | 2.9 | 2.5 | 830 |
| CN(C)CC1(F)CN(c2ccc3nc4n(c3c2)C23CCC(CN(CCOc5c(cnn5C)-c5cc(cn(C)c5=O)C(=O)N4)C2)C3)C1 (single isomer, unassigned) [Example A72B] | 2 | 1.8 | 2.4 | 0.51 | 0.58 | 0.88 | 1.9 | 0.51 | 1.6 | 0.51 | 1.8 | 2.1 | 5.2 | 0.92 | 731 | 2.2 | 1.3 | 2.4 |  |
| CN1CC2(CCN(c3ccc4nc5n(c4c3)C34CCC(CN(CCOc6c(cnn6C)-c6cc(cn(C)c6=O)C(=O)N5)C3)C4)C2)C1 (single isomer, unassigned) [Example A73B] | 2.9 | 1.9 | 4 | 0.54 | 1.9 | 1.8 | 3.5 | 1.9 | 8 | 1.5 | 1.3 | 7.3 | 13 | 1.4 | 1070 | 2.1 | 1.9 | 2.2 |  |
